# Data taken from patent publication US10457654B2 (GENENTECH, INC., priority 2017, dated 2019).
# Counter-ions that a name gives are not always drawn.
# How the values were obtained:
# hNav1.7 [1] = target: T1, hNav1.7 (Homo sapiens (Human), UniProt Q15858); assay: Tritiated compound binding to membranes from cells expressing hNav1.7 and the β1 subunit, modified protocol (LBA, Ex. 243B); details: 300 pM [3H]compound, room temperature, read-out: Nav1.7 LBA (Ex. 243B) IC50
# Target sequence in this assay (Q15858 whole entry, looked up): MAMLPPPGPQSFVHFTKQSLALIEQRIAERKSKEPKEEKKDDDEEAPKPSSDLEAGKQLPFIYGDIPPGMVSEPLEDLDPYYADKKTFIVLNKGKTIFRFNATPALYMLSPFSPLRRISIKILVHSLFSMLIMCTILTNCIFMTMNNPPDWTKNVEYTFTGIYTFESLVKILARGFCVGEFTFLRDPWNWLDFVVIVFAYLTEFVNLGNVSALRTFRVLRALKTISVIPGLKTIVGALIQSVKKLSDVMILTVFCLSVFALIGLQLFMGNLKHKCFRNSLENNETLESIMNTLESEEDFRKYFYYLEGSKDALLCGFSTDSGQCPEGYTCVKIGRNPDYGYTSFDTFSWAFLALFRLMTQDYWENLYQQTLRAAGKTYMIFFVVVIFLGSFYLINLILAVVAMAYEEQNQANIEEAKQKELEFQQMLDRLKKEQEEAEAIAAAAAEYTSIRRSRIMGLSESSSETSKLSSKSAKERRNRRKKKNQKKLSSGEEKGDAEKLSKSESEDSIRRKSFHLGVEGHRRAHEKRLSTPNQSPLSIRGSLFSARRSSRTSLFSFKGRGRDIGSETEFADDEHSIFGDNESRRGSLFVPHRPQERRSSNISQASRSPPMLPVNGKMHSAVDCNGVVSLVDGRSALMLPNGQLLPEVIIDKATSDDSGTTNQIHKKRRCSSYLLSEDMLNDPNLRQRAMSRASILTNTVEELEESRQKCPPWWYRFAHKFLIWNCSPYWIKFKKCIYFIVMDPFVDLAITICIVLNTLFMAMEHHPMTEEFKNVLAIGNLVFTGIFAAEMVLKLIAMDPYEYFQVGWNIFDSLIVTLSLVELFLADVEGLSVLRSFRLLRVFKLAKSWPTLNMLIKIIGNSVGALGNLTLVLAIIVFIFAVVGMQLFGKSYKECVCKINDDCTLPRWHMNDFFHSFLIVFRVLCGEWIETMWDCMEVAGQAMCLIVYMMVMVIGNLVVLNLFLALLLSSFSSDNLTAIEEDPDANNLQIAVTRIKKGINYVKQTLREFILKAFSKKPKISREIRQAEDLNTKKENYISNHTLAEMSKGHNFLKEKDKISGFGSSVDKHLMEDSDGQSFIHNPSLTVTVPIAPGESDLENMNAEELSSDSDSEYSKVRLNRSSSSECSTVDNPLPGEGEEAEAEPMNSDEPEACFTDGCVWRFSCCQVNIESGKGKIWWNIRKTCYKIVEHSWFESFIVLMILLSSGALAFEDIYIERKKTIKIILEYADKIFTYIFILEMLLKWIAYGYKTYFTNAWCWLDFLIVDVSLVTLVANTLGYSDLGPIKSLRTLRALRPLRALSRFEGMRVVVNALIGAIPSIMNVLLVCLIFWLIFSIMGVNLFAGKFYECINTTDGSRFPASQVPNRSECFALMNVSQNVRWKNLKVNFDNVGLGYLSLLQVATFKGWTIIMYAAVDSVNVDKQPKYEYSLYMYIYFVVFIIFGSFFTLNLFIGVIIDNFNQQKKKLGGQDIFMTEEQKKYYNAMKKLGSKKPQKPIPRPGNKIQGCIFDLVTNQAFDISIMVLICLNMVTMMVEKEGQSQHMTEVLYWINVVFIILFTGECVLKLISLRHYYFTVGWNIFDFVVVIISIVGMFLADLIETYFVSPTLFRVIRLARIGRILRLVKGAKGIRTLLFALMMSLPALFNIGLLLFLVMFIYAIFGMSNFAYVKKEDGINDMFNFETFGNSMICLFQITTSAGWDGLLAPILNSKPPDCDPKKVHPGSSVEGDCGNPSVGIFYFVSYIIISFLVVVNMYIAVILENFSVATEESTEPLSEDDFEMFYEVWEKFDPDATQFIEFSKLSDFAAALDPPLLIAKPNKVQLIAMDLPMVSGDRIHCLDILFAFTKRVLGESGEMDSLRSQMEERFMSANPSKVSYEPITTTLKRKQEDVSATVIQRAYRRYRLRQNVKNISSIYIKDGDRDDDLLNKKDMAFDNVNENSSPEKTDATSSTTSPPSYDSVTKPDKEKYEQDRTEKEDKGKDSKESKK
# Target sequence in this assay (Q07699 whole entry partner, looked up): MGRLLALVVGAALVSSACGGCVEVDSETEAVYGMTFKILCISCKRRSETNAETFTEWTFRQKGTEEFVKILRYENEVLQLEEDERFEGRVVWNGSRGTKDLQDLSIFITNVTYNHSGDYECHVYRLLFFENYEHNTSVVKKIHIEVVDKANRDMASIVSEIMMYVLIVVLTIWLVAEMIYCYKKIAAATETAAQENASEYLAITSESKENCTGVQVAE
# hNav1.7 [2] = target: T1, hNav1.7; assay: Patch voltage clamp electrophysiology assay (EP), Syncropatch 384PE, CHO cells expressing Nav1.7; type: cell-based; details: read-out: EP_SP hNav1.7 (Ex. 243B) IC50
# Experimental: Electrophysiological Assay (EP) (In Vitro Assay)
# The following voltage clamp electrophysiology studies were performed on representative compounds using cells heterologously expressing Nav1.7 or Nav1.5 channels. cDNAs for Nav1.7 (NM_002977) and Nav1.5 (AC137587) were stably expressed in Chinese Hamstr Ovary (CHO) cells and CHL (Chinese Hamster Lung) cells respectively. […] Internal solution consists of (in mM): 110 […], 10 […], 20 EGTA, and 10 Hepes (pH adjusted to 7.2); and external solution contains (in mM): 60 NMDG, 80 NaCl, 4 KCl, 1 MgCl2, 2 CaCl2, 2 D-Glucose monohydrate, 10 Hepes (pH adjusted to 7.4 with NaOH).
# The chip is moved into the measuring head and the instrument primes the chip with external and internal solutions. […] cells are added to the chip from a cell hotel, and a negative pressure of −50 mBar is applied to form a seal. Following treatment with seal enhancer solution and wash-off with external solution, negative pressure of −250 mbar is applied for 1 second to achieve the whole-cell configuration, followed by three washing steps in external solution. 20 μl of compounds is added to 40 μl in each well (1:3 dilution of compounds), and after mixing, 20 μl is removed so the volume is retained at 40 μl.
# For voltage protocol, an holding potential of −50 mV is applied during the whole experiment. A depolarizing step is applied to −10 mV for 10 ms, followed by a hyperpolarization step to −150 mV for 20 ms to allow channel recovery from inactivation. A second depolarizing step is applied from −150 mV to −10 mV for 10 ms, where currents were measured to derive blocking effects of compounds. Inhibition is determined based on 7.5 min of compound incubation.
# Target sequence in this assay (Q15858 other isoform, or with tags, fused parts or gaps): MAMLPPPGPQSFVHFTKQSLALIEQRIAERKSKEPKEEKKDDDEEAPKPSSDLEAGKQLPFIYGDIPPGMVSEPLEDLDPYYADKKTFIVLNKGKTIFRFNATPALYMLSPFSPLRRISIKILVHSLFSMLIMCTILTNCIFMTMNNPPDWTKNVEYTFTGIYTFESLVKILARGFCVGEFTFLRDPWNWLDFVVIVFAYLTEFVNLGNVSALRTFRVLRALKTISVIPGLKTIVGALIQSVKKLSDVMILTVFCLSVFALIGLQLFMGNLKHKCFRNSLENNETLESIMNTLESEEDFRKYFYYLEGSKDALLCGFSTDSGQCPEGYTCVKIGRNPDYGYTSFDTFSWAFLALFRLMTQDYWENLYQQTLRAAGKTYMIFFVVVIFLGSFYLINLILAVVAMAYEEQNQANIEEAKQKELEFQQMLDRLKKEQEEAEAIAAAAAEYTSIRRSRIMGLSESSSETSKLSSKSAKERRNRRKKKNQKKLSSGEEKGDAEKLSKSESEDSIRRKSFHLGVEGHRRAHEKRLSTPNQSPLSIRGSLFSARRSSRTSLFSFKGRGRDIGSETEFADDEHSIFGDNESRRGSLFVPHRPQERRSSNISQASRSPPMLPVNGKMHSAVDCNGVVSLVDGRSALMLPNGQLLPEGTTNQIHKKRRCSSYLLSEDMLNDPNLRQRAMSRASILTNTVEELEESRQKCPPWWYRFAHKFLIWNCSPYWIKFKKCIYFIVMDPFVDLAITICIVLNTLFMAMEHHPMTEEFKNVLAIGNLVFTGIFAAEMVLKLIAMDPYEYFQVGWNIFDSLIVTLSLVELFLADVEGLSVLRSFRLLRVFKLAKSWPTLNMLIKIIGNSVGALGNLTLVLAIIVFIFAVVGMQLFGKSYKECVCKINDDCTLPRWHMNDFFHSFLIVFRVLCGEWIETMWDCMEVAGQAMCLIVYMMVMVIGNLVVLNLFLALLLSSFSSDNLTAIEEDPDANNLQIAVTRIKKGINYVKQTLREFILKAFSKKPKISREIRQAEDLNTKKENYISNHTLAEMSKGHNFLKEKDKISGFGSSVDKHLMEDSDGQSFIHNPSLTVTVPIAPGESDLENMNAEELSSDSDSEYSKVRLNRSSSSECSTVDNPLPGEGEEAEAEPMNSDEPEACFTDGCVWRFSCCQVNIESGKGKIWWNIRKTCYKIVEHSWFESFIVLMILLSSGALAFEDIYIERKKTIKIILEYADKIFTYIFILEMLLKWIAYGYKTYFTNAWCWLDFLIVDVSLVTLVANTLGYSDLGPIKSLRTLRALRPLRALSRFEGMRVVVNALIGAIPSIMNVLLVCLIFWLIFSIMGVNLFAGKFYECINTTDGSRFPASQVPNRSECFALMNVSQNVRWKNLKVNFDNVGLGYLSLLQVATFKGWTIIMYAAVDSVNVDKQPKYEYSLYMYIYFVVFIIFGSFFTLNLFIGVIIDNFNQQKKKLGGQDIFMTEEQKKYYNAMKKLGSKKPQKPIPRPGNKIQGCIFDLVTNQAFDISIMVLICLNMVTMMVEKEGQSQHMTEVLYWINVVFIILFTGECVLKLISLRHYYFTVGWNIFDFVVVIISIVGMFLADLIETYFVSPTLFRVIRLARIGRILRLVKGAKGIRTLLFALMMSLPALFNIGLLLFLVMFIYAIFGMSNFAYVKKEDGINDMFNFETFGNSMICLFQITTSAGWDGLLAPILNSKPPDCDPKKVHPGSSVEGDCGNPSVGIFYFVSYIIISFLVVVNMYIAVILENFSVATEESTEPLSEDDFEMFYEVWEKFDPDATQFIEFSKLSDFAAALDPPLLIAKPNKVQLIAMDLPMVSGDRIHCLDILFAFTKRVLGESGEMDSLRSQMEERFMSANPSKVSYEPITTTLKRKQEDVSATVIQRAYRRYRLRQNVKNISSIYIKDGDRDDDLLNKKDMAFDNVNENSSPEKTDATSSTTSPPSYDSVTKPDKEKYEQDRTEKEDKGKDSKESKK
# [3] = holding potential -50 mV, […] compound incubation
smiles,measurement,setting,value
"CC(C)CC(=O)N1CC(N(C)[C@H]2CCCC[C@@H]2Nc2cc(F)c(S(=O)(=O)Nc3nccs3)cc2Cl)C1 [Example 147, 5-Chloro-2-fluoro-4-(((1S,2S)-2-(methyl(1-(3-methylbutanoyl)azetidin-3-yl)amino)cyclohexyl)amino)-N-(thiazol-2-yl)benzenesulfonamide]",IC50,hNav1.7 [1],0.275 µM
same,IC50,hNav1.7 [2]; [3],0.0272 µM
"CC(=O)N1CC(N(C)[C@H]2CCCC[C@@H]2Nc2cc(F)c(S(=O)(=O)Nc3nccs3)cc2Cl)C1 [Example 148, 4-(((1S,2S)-2-((1-Acetylazetidin-3-yl)(methyl)amino)cyclohexyl)amino)-5-chloro-2-fluoro-N-(thiazol-2-yl)benzenesulfonamide]",IC50,hNav1.7 [1],0.305 µM
same,IC50,hNav1.7 [2]; [3],0.0253 µM
"N#CC1CCN([C@H]2CCCC[C@@H]2Nc2cc(F)c(S(=O)(=O)Nc3nccs3)cc2Cl)CC1 [Example 149, 5-Chloro-4-(((1S,2S)-2-(4-cyanopiperidin-1-yl)cyclohexyl)amino)-2-fluoro-N-(thiazol-2-yl)benzenesulfonamide formate]",IC50,hNav1.7 [1],0.52 µM
same,IC50,hNav1.7 [2]; [3],0.0125 µM
"CC1(O)CCN([C@H]2CCCC[C@@H]2Nc2cc(F)c(S(=O)(=O)Nc3nccs3)cc2Cl)CC1 [Example 150, 5-chloro-2-fluoro-4-(((1S,2S)-2-(4-hydroxy-4-methylpiperidin-1-yl)cyclohexyl)amino)-N-(thiazol-2-yl)benzenesulfonamide formate]",IC50,hNav1.7 [1],1.41 µM
same,IC50,hNav1.7 [2]; [3],0.103 µM
"O=S(=O)(Nc1ccncn1)c1cc(Cl)c(N[C@H]2CCCC[C@@H]2N2CC3CC3C2)cc1F (stereo partly drawn) [Example 151, 4-(((1S,2S)-2-(3-azabicyclo[3.1.0]hexan-3-yl)cyclohexyl)amino)-5-chloro-2-fluoro-N-(pyrimidin-4-yl)benzenesulfonamide]",IC50,hNav1.7 [1],0.181 µM
same,IC50,hNav1.7 [2]; [3],0.0201 µM
"O=S(=O)(Nc1ccncn1)c1cc(Cl)c(N[C@@H]2CCCC[C@H]2N2CC3CC3C2)cc1F (stereo partly drawn) [Example 152, 4-(((1R,2R)-2-(3-azabicyclo[3.1.0]hexan-3-yl)cyclohexyl)amino)-5-chloro-2-fluoro-N-(pyrimidin-4-yl)benzenesulfonamide]",IC50,hNav1.7 [1],2 µM
same,IC50,hNav1.7 [2]; [3],1.68 µM
"O=S(=O)(Nc1nccs1)c1cc(Cl)c(N[C@H]2CCCC[C@@H]2N2CCC[C@H](O)C2)cc1F [Example 153, 5-chloro-2-fluoro-4-(((1S,2S)-2-((S)-3-hydroxypiperidin-1-yl)cyclohexyl)amino)-N-(thiazol-2-yl)benzenesulfonamide]",IC50,hNav1.7 [1],0.0171 µM
same,IC50,hNav1.7 [2]; [3],0.00407 µM
"O=S(=O)(Nc1nccs1)c1cc(Cl)c(N[C@H]2CCCC[C@@H]2N2CCC3(CC2)CC3)cc1F [Example 154, 4-(((1S,2S)-2-(6-Azaspiro[2.5]octan-6-yl)cyclohexyl)amino)-5-chloro-2-fluoro-N-(thiazol-2-yl)benzenesulfonamide formate]",IC50,hNav1.7 [1],1.2 µM
same,IC50,hNav1.7 [2]; [3],0.101 µM
"CN(C1CN(C(=O)C2CC2)C1)[C@H]1CCCC[C@@H]1Nc1cc(F)c(S(=O)(=O)Nc2nccs2)cc1Cl [Example 155, 5-Chloro-4-(((1S,2S)-2-((1-(cyclopropanecarbonyl)azetidin-3-yl)(methyl)amino)-cyclohexyl)amino)-2-fluoro-N-(thiazol-2-yl)benzenesulfonamide]",IC50,hNav1.7 [1],0.13 µM
same,IC50,hNav1.7 [2]; [3],0.0123 µM
"CN([C@H]1C[C@@H](O)C1)[C@H]1CCCC[C@@H]1Nc1cc(F)c(S(=O)(=O)Nc2nccs2)cc1Cl [Example 156, 5-Chloro-2-fluoro-4-(((1S,2S)-2-((cis-3-hydroxycyclobutyl)(methyl)amino)cyclohexyl)amino)-N-(thiazol-2-yl)benzenesulfonamide formate]",IC50,hNav1.7 [1],0.316 µM
same,IC50,hNav1.7 [2]; [3],0.0189 µM
"CN([C@H]1C[C@H](O)C1)[C@H]1CCCC[C@@H]1Nc1cc(F)c(S(=O)(=O)Nc2nccs2)cc1Cl [Example 157, 5-Chloro-2-fluoro-4-(((1S,2S)-2-((trans-3-hydroxycyclobutyl)(methyl)amino)cyclohexyl)amino)-N-(thiazol-2-yl)benzenesulfonamide formate]",IC50,hNav1.7 [1],0.337 µM
same,IC50,hNav1.7 [2]; [3],0.0241 µM
"CN(CCO)[C@H]1C[C@@H](C(F)(F)F)CC[C@@H]1Nc1cc(F)c(S(=O)(=O)Nc2cccc(F)n2)cc1Cl [Example 158, 5-chloro-2-fluoro-N-(6-fluoropyridin-2-yl)-4-(((1S,2S,4S)-2-((2-hydroxyethyl)(methyl)amino)-4-(trifluoromethyl)cyclohexyl)amino)benzenesulfonamide formate]",IC50,hNav1.7 [1],0.00596 µM
same,IC50,hNav1.7 [2]; [3],0.00271 µM
"O=S(=O)(Nc1nccs1)c1cc(Cl)c(N[C@@H]2CCCC[C@H]2N2CC3CC3C2)cc1F (stereo partly drawn) [Example 159, 4-(((1R,2R)-2-(3-azabicyclo[3.1.0]hexan-3-yl)cyclohexyl)amino)-5-chloro-2-fluoro-N-(thiazol-2-yl)benzenesulfonamide]",IC50,hNav1.7 [1],1.79 µM
same,IC50,hNav1.7 [2],0.202 µM
"O=S(=O)(Nc1nccs1)c1cc(Cl)c(N[C@H]2CCCC[C@@H]2N2CC3CC3C2)cc1F (stereo partly drawn) [Example 160, 4-(((1S,2S)-2-(3-azabicyclo[3.1.0]hexan-3-yl)cyclohexyl)amino)-5-chloro-2-fluoro-N-(thiazol-2-yl)benzenesulfonamide]",IC50,hNav1.7 [1],0.0203 µM
same,IC50,hNav1.7 [2],0.00227 µM
"N#C[C@@H]1CCN([C@H]2CCCC[C@@H]2Nc2cc(F)c(S(=O)(=O)Nc3nccs3)cc2Cl)C1 [Example 161, 5-Chloro-4-(((1S,2S)-2-((R)-3-cyanopyrrolidin-1-yl)cyclohexyl)amino)-2-fluoro-N-(thiazol-2-yl)benzenesulfonamide formate]",IC50,hNav1.7 [1],0.187 µM
same,IC50,hNav1.7 [2]; [3],0.00303 µM
"N#C[C@H]1CCN([C@H]2CCCC[C@@H]2Nc2cc(F)c(S(=O)(=O)Nc3nccs3)cc2Cl)C1 [Example 162, 5-Chloro-4-(((1S,2S)-2-((S)-3-cyanopyrrolidin-1-yl)cyclohexyl)amino)-2-fluoro-N-(thiazol-2-yl)benzenesulfonamide formate]",IC50,hNav1.7 [1],0.248 µM
same,IC50,hNav1.7 [2]; [3],0.00855 µM
"CN1CCN([C@H]2CCCC[C@@H]2Nc2cc(F)c(S(=O)(=O)Nc3nccs3)cc2Cl)CC1 [Example 163, 5-Chloro-2-fluoro-4-(((1S,2S)-2-(4-methylpiperazin-1-yl)cyclohexyl)amino)-N-(thiazol-2-yl)benzenesulfonamide]",IC50,hNav1.7 [1],0.201 µM
same,IC50,hNav1.7 [2]; [3],0.0181 µM
"CN(C)[C@@H]1Cc2ccccc2C[C@H]1Nc1cc(F)c(S(=O)(=O)Nc2nccs2)cc1Cl [Example 164, 5-Chloro-4-(((2R,3R)-3-(dimethylamino)-1,2,3,4-tetrahydronaphthalen-2-yl)amino)-2-fluoro-N-(thiazol-2-yl)benzenesulfonamide]",IC50,hNav1.7 [1],0.0534 µM
same,IC50,hNav1.7 [2]; [3],0.00743 µM
"CN(C)[C@H]1Cc2ccccc2C[C@@H]1Nc1cc(F)c(S(=O)(=O)Nc2nccs2)cc1Cl [Example 165, 5-Chloro-4-(((2S,3S)-3-(dimethylamino)-1,2,3,4-tetrahydronaphthalen-2-yl)amino)-2-fluoro-N-(thiazol-2-yl)benzenesulfonamide]",IC50,hNav1.7 [1],2 µM
same,IC50,hNav1.7 [2]; [3],0.511 µM
"CC(=O)N(C)[C@H]1CCCC[C@@H]1Nc1cc(F)c(S(=O)(=O)Nc2nccs2)cc1Cl [Example 166, N-((1S,2S)-2-((2-Chloro-5-fluoro-4-(N-(thiazol-2-yl)sulfamoyl)phenyl)amino)cyclohexyl)-N-methylacetamide]",IC50,hNav1.7 [1],0.341 µM
same,IC50,hNav1.7 [2]; [3],0.0139 µM
